Experimental data reported in PMC10376059, “New NADPH Oxidase 2 Inhibitors Display Potent Activity against Oxidative Stress by Targeting p22^phox-p47^phox Interactions” (Antioxidants, 2023).

Experiments:
[1] = DPPH radical scavenging activity; format: physicochemical; conditions: for antioxidant effects in the pharmacological range (in words): up to 50 μM
Description: The newly synthesized compounds were evaluated for 2,2-diphenyl-1-picrylhydrazyl […] free radical scavenging activity. The reduction and stabilization of DPPH by antioxidant compounds lead to discoloration, resulting in a decrease in absorbance at 517 nm, which was expressed as a percentage of the radical solution at a given concentration of discoloration. The heteroarylacrylonitrile derivatives were re-suspended in a minimum of DMSO at a final concentration of 5 mg/mL (stock solution). From these, they were diluted to concentrations of 1000, 500, and 100 μg/mL. These solutions were mixed with a methanol solution of DPPH (20 μg/mL) for 5 min. Each compound was evaluated in triplicate; absorbance at 517 nm in a UNICAM UV/visible spectrophotometer Helios-α (Thermo Electron Corporation, Waltham, MA USA) was measured by subtracting the solvent absorbance and comparing the resulting value with that of a blank sample. The percentage of discoloration was established according to the following formula: % Radical removal or discoloration = (1 − (AM − ABM)/AC) × 100, where AM is the absorbance of the sample compound, ABM is the absorbance of the sample blank, and AC is the absorbance of the control. The degree of discoloration indicates the efficacy of the compounds studied as free radical scavengers; therefore, a percentage of discoloration of 100 indicates the maximum radical scavenging capacity and a value close to 0 indicates a zero radical scavenging capacity. Quercetin was used as a reference compound in a concentration range of 1.25 to 7.5 μg/mL.

[2] = test system: cardiomyocytes isolated from mdx mice; assay: NOX2-mediated ROS production (DCF-DA, confocal) in mdx cardiomyocytes; format: cell-based, mouse; conditions: 1 µM, vs control
From the text: Cardiomyocytes were isolated from mdx mice (C57BL/10ScSn-DMDmdx/J, stock number 001801M, Jackson Laboratories, Bar Harbor, […], USA). Male mdx mice of 19 months of age were used, which were housed in individual cages with water and food ad libitum. All the procedures were adjusted to the “Guide for the Care and Use of Laboratory Animals” (1996) of the National Institute of Health and were approved by the Institutional Committee for Animal Care and Use of the Universidad de Talca. Mice were pre-medicated with heparin i.p. (200U.) and then sacrificed by cervical dislocation. The heart was rapidly removed, cannulated through the aorta, and retrogradely perfused in a steady flow (2 mL/min) at 37 °C. The hearts were initially perfused for 10 min with a Ca^2+-free bicarbonate buffer solution containing (in mM) 120 NaCl; 5.4 KCl; 1.2 MgSO4; 1.2 NaH2PO4; 5.6 glucose; 20 NaHCO3; 10 BDM, and 5 taurine, bubbled with a 95% O2–5% CO2 mixture. Enzyme digestion was performed with collagenase type II (1 mg/mL; Worthington Biochemical Corp., Lakewood, NJ, USA) and protease type XIV (0.1 mg/mL; Sigma-Aldrich) as previously reported. Isolated cardiomyocytes were transferred to 1.5 mL Eppendorf tubes and preincubated with the heteroaryl acrylonitrile compounds.
Cardiomyocytes isolated from mdx mice were transferred to Eppendorf tubes to be incubated with 1 μM of the indole heteroaryl-acrylonitrile derivatives for 30 min, protected from light, at room temperature. VAS2870 (20 μM) was used as a positive control for NOX2 inhibition. 2′,7′-dichlorofluorescein diacetate (DCF-DA) (10 μM) was then added and incubated for 15 min. Subsequently, it was allowed to sediment by gravity to remove the supernatant, and the pellets obtained were in a phosphate saline solution (PBS). 200 μL of the cell suspension were placed on pre-treated polylysine slides (Thermo Fischer, USA) and fixed with 2% paraformaldehyde (Sigma-Aldrich®, St. Louis, MO, USA) for 10 min at 4 °C. […] From the acquired images, the fluorescence intensity was quantified at 495 nm, and the data were reported as fluorescence intensity per pixel.

Row | Structure (SMILES) | antioxidant capacity, DPPH discoloration (in words) [1] | antioxidant capacity, DPPH discoloration ([1]; concentration range 30–300 μM) | antioxidant effects in the pharmacological range (in words) [1] | DCF fluorescence intensity, NOX2-derived ROS (in words) [2]
1 | N#C/C(=C\c1ccncc1)C(=O)c1c[nH]c2ccccc12 [Compound C14] | showed antioxidant capacity only at very high concentrations | 12% | minimal | significant decrease in fluorescence intensity
2 | N#C/C(=C\c1cc(-c2ccccc2)on1)C(=O)c1c[nH]c2ccccc12 [Compound C6] | showed antioxidant capacity only at very high concentrations | – | minimal | significant decrease in fluorescence intensity
